The target in data set [1] is T1, dopamine D2 receptors (Rattus norvegicus, UniProt P61169).
T1 construct: rats (125-250 g) are sacrificed and striatal tissue is dissected and weighed; from tissue; host or cells: rat corpus striatum membranes (male Wistar rats)
The data set is described as follows: Inhibition of [3H]-spiperone binding to dopamine D2 receptors in rat corpus striatum in vitro. On the procedure:
Inhibition of [^3H]-Spiperone Binding to Dopamnine D2 Receptors in Rat Corpus Striatum in vitro
By this method, the inhibition by drugs of the binding of [^3H]-spiperone (=^3H]-spiro-peridol) (0.5 nM) to dopamine D-2 receptors in membranes from rat corpus striatum is determined in vitro. […] PharmacoL. ToxicoL. […] This is a test for dopamnine D2 receptor binding affinity in vitro.
The tissue is homogenized (Ultra Turrax, 10 sec.) in 10 mL of ice-cold 50 mM K-phosphate buffer pH 7.4 (at 25° C.). The homogenate is centrifuiged twice at 20,000 g for 10 min at 4° C. with rehomogenization of the pellet in 10 mL ice-old buffer. The final pellet is homogenized in 1300 vol (w/v) ice-cold buffer.
The binding experiment is initiated by addition of 100 μl of [^3H]-spiperone (final concentration 0.5 nM) and by placing the tubes in a 37° C. water bath. […] The tubes are rinsed with 5 mL ice-old buffer which are then poured on the filters. Thereafter, the filters are washed with 2×5 mL of buffer. The filters are placed in counting vials and 4 mL of appropriate scintillation fluid (e.g. Picofluor™15) are added. After shaking for 1 h and storage for 2 hrs in the dark, the content of radioactivity is determined by liquid scintillation counting. Specific binding is obtained by subtracting the nonspecific binding in the presence of 10 μM of 6,7-ADTN.
For determination of the inhibition of binding, five concentrations of drugs covering 3 orders of magnitude are used.
[^3H]-Spiperone=[phenyl-4-^3H]-spiperone from Amersham International plc. England, specific activity 15-25 Ci/mmol.

The target of data set [2] is T2, serotonin S2 (5HT2A) receptors (Rattus norvegicus, UniProt P14842).
T2 construct: rats (125-250 g) are sacrificed and cortical tissue is dissected and weighed; from tissue; host or cells: rat cortex membranes (male Wistar rats)
The data set is described as follows: Inhibition of [3H]-ketanserin binding to serotonin S2 (5HT2A) receptors in rat cortex in vitro. On the procedure:
INHIBITION OF [^3H]-KETANSERIN BINDING TO SEROTONIN S2 (5HT2A) RECEPTORS IN RAT CORTEX IN VITRO
By this method, the inhibition by drugs of the binding of [^3H]-ketanserin (0.5 nM) to serotonin S2 (5-HT2) receptors in membranes from rat cortex is determined in vitro.
The tissue is homogenized (Ultra Turrax, 10 sec) in 10 mL of ice cold 50 mM tris buffer pH 7.7 (at 25° C.). The centrifige glassware used in this step has been rinsed by sonication for 10 min in ethanol. The homogenate is centrifuged twice at 20,000 g for 10 min. at 4° C., with rehomogenization of the pellet in 10 mnL ice-cold buffer. The final pellet is homogenized in 250 vol (w/v) ice-cold buffer.
Incubation tubes (96 deep well titer plate) kept on ice receive 50 mL of [^3H]-ketanserin (final concentration 0.5 nM).
The binding experiment is initiated by addition of […] of tissue suspension (final tissue content corresponds to 4 mg original tissue) and by placing the 96 deep well titer plate in a 37° C. water bath. All tests are made in triplicates.
After incubation for 30 min, the samples are filtered on a Brandel harvester under vacuum (18 inch Hg) through printed filter mat B (13 mm). Titerplate and filter are washed 2×10 sec. flow 50L/h with ice cold buffer.
The printed filter mat with purred labelled tissue are dried for 1 h at 110° C. and hereafter placed in a sample bag with Meltilex B/HS 14.5 g and melted together on the T-tray heat seal.
Specific binding is obtained by subtracting the nonspecific binding in the presence of 1 mM mianserin.
(§1) For determination of the inhibition of binding, five concentrations of drugs covering 3 decades are used.
[^3H]-ketanserin=(ethylene-^3H)-ketanserin hydrochloride from New England Nuclear, specific activity […].

In data set [3] the target is α1-adrenoceptors. The data set is described as follows: Inhibition of [3H]-prazosin binding to α1-adrenoceptors in rat brain in vitro. Conditions: [3H]-prazosin 0.25 nM, membranes from rat brain. On the procedure:
Method and results in Hyttel & Larsen, J. Neurochem.
The tissue is homogenized (Ultra Turrax, 10 se) in 10 mL of ice cold 50 mM tris buffer pH 7.7 (at 25° C.). The homogenate is centiflged twice at 20,000 g for 10 min at 4° C. with rehomogenization of the pellet in 10 ml ice-cold buffer. The final pellet is homogenized in 250 vol (w/v) ice-cold buffer.
The binding experiment is initiated by addition of […] of tissue suspension (final tissue content corresponds to 3 mg original tissue) and by placing the 96 deep well titer plate in a 25° C. water bath. AU tests are made in triplicates. After incubation for 20 min, the samples are filtered on a Brandel harvester under vacuum (18 inch. Hg) through printed filtermat B (13 mm). Titerplates and filter are washed 1×10 sec flow 50 L/h with ice cold buffer.
The filter mat is dried for 1 h at 110° C. and then placed in a sample bag with Meltilex B/HS (14.5 g) and melted together on the T-Tray heat sealer.
as §1

Setting [4] is: [3H]-spiperone 0.5 nM, membranes from rat corpus striatum, read-out: IC50 values D2.
Where [5] appears, read: [3H]-ketanserin 0.5 nM, membranes from rat cortex, read-out: IC50 values 5-HT2A.

pIC50: −log10 of the molar value. Where two headings read alike, the source gives them in different places.

The term pIC50 denotes the negative decadic logarithm of the IC50, by convention in mol/L. What is called melting point is the temperature, or range, at which the solid turns liquid.

T2 sequence (P14842 whole entry): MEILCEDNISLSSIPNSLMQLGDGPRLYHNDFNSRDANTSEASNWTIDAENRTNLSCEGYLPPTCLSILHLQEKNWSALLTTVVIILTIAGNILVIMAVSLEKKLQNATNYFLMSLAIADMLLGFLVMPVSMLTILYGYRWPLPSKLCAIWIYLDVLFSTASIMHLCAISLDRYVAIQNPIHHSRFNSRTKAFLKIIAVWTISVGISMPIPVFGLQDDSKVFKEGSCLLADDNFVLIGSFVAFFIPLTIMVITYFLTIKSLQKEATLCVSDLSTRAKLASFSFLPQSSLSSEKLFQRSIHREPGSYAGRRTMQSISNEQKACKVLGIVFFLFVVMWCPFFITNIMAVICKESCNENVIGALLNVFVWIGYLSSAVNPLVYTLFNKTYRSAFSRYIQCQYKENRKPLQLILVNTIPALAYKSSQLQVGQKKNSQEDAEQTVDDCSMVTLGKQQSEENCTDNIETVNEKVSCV
T1 sequence (P61169 whole entry): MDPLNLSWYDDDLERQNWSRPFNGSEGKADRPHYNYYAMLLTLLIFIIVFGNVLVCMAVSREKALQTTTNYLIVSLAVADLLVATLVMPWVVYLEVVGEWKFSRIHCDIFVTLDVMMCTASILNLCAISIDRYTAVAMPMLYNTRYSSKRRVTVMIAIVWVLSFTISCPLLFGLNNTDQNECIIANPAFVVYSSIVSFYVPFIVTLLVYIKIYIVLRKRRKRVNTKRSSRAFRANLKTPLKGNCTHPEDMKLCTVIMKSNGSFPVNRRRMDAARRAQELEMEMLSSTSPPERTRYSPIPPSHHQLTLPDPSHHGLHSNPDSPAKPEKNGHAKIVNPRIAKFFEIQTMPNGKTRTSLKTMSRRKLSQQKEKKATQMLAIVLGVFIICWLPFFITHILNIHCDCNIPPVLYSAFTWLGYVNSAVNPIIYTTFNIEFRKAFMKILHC

`CN(C)Cc1ccc2c(c1)c(C1=CCN(CCN3CCNC3=O)CC1)cn2-c1ccc(F)cc1` [Compound 7d, 1-[2-[4-[5-Dimethylaminomethyl-1-(4-fluorophenyl)-1H-indol-3-yl]-1,2,3,6-tetrahydropyridin-1-yl]ethyl]-2-imidazolidinon] came in with a melting point of 146 to 148 °C. Moreover, in data set [1], the pIC50 is 7.46. The molecule further had a pIC50 in data set [2] of 7.10. Moreover, the pIC50 in data set [3] was 9.28.

In turn, `COc1cc2nc(N3CCN(C(=O)c4ccco4)CC3)nc(N)c2cc1OC` [Prazosin, reference compound] had a pIC50 in data set [3] of 9.44.

Turning to `CN(C)C(=O)c1ccc2c(c1)c(C1CCN(CCN3CCNC3=O)CC1)cn2-c1ccc(F)cc1` [Compound 7b, N,N-Dimethyl-1-(4-fluorophenyl)-3-[1-[2-(2-imidazolidinon-1-yl)ethyl]4-piperidinyl]-1H-indole-5-carboxamide], the melting point was in the range of 172 to 176 °C. The pIC50 in data set [1] (setting [4]) is 6.77. Further, the negative logarithm of the IC50 (pIC50) in data set [2] (setting [5]) is 7.74. This molecule also gave a negative logarithm of the IC50 (pIC50) in data set [3] of 8.27.

In the case of `CN(C)Cc1ccc2c(c1)c(C1CCN(CCN3CCNC3=O)CC1)cn2-c1ccc(F)cc1` [Compound 7c, 1-[2-[4-[5-Dimethylaminomethyl-1-(4-fluorophenyl)-1H-indol-3-yl]-1-piperidinyl]ethyl]-2-imidazolidinon], the melting point lay in the range of 166 to 174 °C. For the same molecule, in data set [1] (setting [4]), the pIC50 was 6.74. In addition, the negative-log IC50 (pIC50) in data set [2] (setting [5]) is 7.30. The negative logarithm of the IC50 (pIC50) in data set [3] was 8.89.

The molecule `O=C1NCCN1CCN1CCC(c2cn(-c3ccc(F)cc3)c3ccc(Cl)cc23)CC1` [Sertindole, sertindole, reference compound] gave a negative logarithm of the IC50 (pIC50) in data set [3] of 8.47.

(Values after patent publication US6833376B2, “5-aminoalkyl and 5-aminocarbonyl substituted indoles” (H. Lundbeck A/S, priority 1999, dated 2004).)
